In PMC11003488 (Journal of Enzyme Inhibition and Medicinal Chemistry, 2023):
“And” between values parts separate entries of the source, which are not always exact repeats. Identical values can stand only once.

Legend:
[1] = test system: TNF-α; assay: Gene expression by RT-qPCR in HCT-116; conditions: HCT-116, 24 h, IC50 of compound; vs 0.1% DMSO; 2^-ΔΔct
[2] = test system: HCT-116 (colon cancer); assay: Apoptosis AV/PI assay by flow cytometry; assay type: cell-based, human; conditions: HCT-116, 24 h, IC50 of compound
[3] = test system: Cyt-c; assay: Gene expression by RT-qPCR in HCT-116; conditions: HCT-116, 24 h, IC50 of compound; vs 0.1% DMSO; 2^-ΔΔct
[4] = test system: Caspase-3; assay: Protein level by ELISA assay in HCT-116; assay type: cell-based, human; conditions: HCT-116, IC50 of compound, 24 h, vs 0.1% DMSO
[5] = test system: HCT-116 (colon cancer); assay: Cell cycle analysis by PI flow cytometry; assay type: cell-based, human; conditions: HCT-116, 24 h, IC50 of compound
[6] = test system: Bax; assay: Gene expression by RT-qPCR in HCT-116; conditions: HCT-116, 24 h
[7] = test system: Bax; assay: Protein level by ELISA assay in HCT-116; assay type: cell-based, human; conditions: HCT-116, IC50 of compound, 24 h, vs 0.1% DMSO
[8] = test system: Bcl-2; assay: Gene expression by RT-qPCR in HCT-116; conditions: HCT-116, 24 h, IC50 of compound; vs 0.1% DMSO; 2^-ΔΔct
[9] = test system: Caspase-3; assay: Gene expression by RT-qPCR in HCT-116; conditions: HCT-116, 24 h, IC50 of compound; vs 0.1% DMSO; 2^-ΔΔct
[10] = test system: SW-620; conditions: NCI Data NSC: 800934 ref 41; cited from earlier work
[11] = test system: NCI 60-cell line panel (full panel); conditions: read-out: Full panel MG-MID GI50, NCI Data NSC: 800934; cited from earlier work
[12] = test system: M14; conditions: NCI Data NSC: 800934 ref 41; cited from earlier work
[13] = test system: HOP-62; conditions: NCI Data NSC: 800934 ref 41; cited from earlier work
[14] = test system: RXF 393; conditions: NCI Data NSC: 800934 ref 41; cited from earlier work
[15] = test system: UACC-62; conditions: NCI Data NSC: 800934 ref 41; cited from earlier work
[16] = test system: LOX IMVI; conditions: NCI Data NSC: 800934 ref 41; cited from earlier work
[17] = test system: Renal cancer cell lines; conditions: read-out: MG-MID GI50; Renal Cancer subpanel; NCI Data NSC: 800934; cited from earlier work
[18] = test system: NCI-H23; conditions: NCI Data NSC: 800934 ref 41; cited from earlier work
[19] = test system: MCF7; conditions: NCI Data NSC: 800934 ref 41; cited from earlier work
[20] = test system: Ovarian cancer cell lines; conditions: read-out: MG-MID GI50; Ovarian Cancer subpanel; NCI Data NSC: 800934; cited from earlier work
[21] = test system: COLO 205; conditions: NCI Data NSC: 800934 ref 41; cited from earlier work
[22] = test system: SK-MEL-28; conditions: NCI Data NSC: 800934 ref 41; cited from earlier work
[23] = test system: NCI/ADR-RES; conditions: NCI Data NSC: 800934 ref 41; cited from earlier work
[24] = test system: Melanoma cell lines; conditions: read-out: MG-MID GI50; Melanoma subpanel; NCI Data NSC: 800934; cited from earlier work
[25] = test system: SN12C; conditions: NCI Data NSC: 800934 ref 41; cited from earlier work
[26] = test system: CNS cancer cell lines; conditions: read-out: MG-MID GI50; CNS Cancer subpanel; NCI Data NSC: 800934; cited from earlier work
[27] = test system: UO-31; conditions: NCI Data NSC: 800934 ref 41; cited from earlier work
[28] = test system: MALME-3M; conditions: NCI Data NSC: 800934 ref 41; cited from earlier work
[29] = test system: KM12; conditions: NCI Data NSC: 800934 ref 41; cited from earlier work
[30] = test system: Colon cancer cell lines; conditions: read-out: MG-MID GI50; Colon Cancer subpanel; NCI Data NSC: 800934; cited from earlier work
[31] = test system: NSCLC cell lines; conditions: read-out: MG-MID GI50; NSCLC subpanel; NCI Data NSC: 800934; cited from earlier work
[32] = test system: HL-60(TB); conditions: NCI Data NSC: 800934 ref 41; cited from earlier work
[33] = test system: SF-268; conditions: NCI Data NSC: 800934 ref 41; cited from earlier work
[34] = test system: BT-549; conditions: NCI Data NSC: 800934 ref 41; cited from earlier work
[35] = test system: SF-539; conditions: NCI Data NSC: 800934 ref 41; cited from earlier work
[36] = test system: SNB-19; conditions: NCI Data NSC: 800934 ref 41; cited from earlier work
[37] = test system: CAKI-1; conditions: NCI Data NSC: 800934 ref 41; cited from earlier work
[38] = test system: SF-295; conditions: NCI Data NSC: 800934 ref 41; cited from earlier work
[39] = test system: DU-145; conditions: NCI Data NSC: 800934 ref 41; cited from earlier work
[40] = test system: OVCAR-4; conditions: NCI Data NSC: 800934 ref 41; cited from earlier work
[41] = test system: NCI-H226; conditions: NCI Data NSC: 800934 ref 41; cited from earlier work
[42] = test system: Breast cancer cell lines; conditions: read-out: MG-MID GI50; Breast Cancer subpanel; NCI Data NSC: 800934; cited from earlier work
[43] = test system: SNB-75; conditions: NCI Data NSC: 800934 ref 41; cited from earlier work
[44] = test system: Prostate cancer cell lines; conditions: read-out: MG-MID GI50; Prostatic Cancer subpanel; NCI Data NSC: 800934; cited from earlier work
[45] = test system: OVCAR-5; conditions: NCI Data NSC: 800934 ref 41; cited from earlier work
[46] = test system: NCI-H522; conditions: NCI Data NSC: 800934 ref 41; cited from earlier work
[47] = test system: OVCAR-3; conditions: NCI Data NSC: 800934 ref 41; cited from earlier work
[48] = test system: HCT-15; conditions: NCI Data NSC: 800934 ref 41; cited from earlier work
[49] = test system: Leukaemia cell lines; conditions: read-out: MG-MID GI50; leukaemia subpanel; NCI Data NSC: 800934; cited from earlier work
[50] = test system: HS 578 T; conditions: NCI Data NSC: 800934 ref 41; cited from earlier work
[51] = test system: OVCAR-8; conditions: NCI Data NSC: 800934 ref 41; cited from earlier work
[52] = test system: EKVX; conditions: NCI Data NSC: 800934 ref 41; cited from earlier work
[53] = test system: T-47D; conditions: NCI Data NSC: 800934 ref 41; cited from earlier work
[54] = test system: PC-3; conditions: NCI Data NSC: 800934 ref 41; cited from earlier work
[55] = test system: HT29; conditions: NCI Data NSC: 800934 ref 41; cited from earlier work
[56] = test system: MOLT-4; conditions: NCI Data NSC: 800934 ref 41; cited from earlier work
[57] = test system: 786-0; conditions: NCI Data NSC: 800934 ref 41; cited from earlier work
[58] = test system: SR; conditions: NCI Data NSC: 800934 ref 41; cited from earlier work
[59] = test system: A549/ATCC; conditions: NCI Data NSC: 800934 ref 41; cited from earlier work
[60] = test system: A498; conditions: NCI Data NSC: 800934 ref 41; cited from earlier work
[61] = test system: NCI-H460; conditions: NCI Data NSC: 800934 ref 41; cited from earlier work
[62] = test system: MDA-MB-435; conditions: NCI Data NSC: 800934 ref 41; cited from earlier work
[63] = test system: CCRF-CEM; conditions: NCI Data NSC: 800934 ref 41; cited from earlier work
[64] = test system: SK-MEL-2; conditions: NCI Data NSC: 800934 ref 41; cited from earlier work
[65] = test system: HCC-2998; conditions: NCI Data NSC: 800934 ref 41; cited from earlier work
[66] = test system: IGROV1; conditions: NCI Data NSC: 800934 ref 41; cited from earlier work
[67] = test system: SK-OV-3; conditions: NCI Data NSC: 800934 ref 41; cited from earlier work
[68] = test system: TK-10; conditions: NCI Data NSC: 800934 ref 41; cited from earlier work
[69] = test system: UACC-257; conditions: NCI Data NSC: 800934 ref 41; cited from earlier work
[70] = test system: NCI-H322M; conditions: NCI Data NSC: 800934 ref 41; cited from earlier work
[71] = test system: ACHN; conditions: NCI Data NSC: 800934 ref 41; cited from earlier work
[72] = test system: U251; conditions: NCI Data NSC: 800934 ref 41; cited from earlier work

Question: With COc1cccc2c1C(=O)c1c(O)c3c(c(O)c1C2=O)C[C@@](O)(C(=O)CO)C[C@@H]3O[C@H]1C[C@H](N)[C@H](O)[C@H](C)O1 [Doxorubicin, reference compound] as the compound, how does the “TNF-α gene expression fold change” value [1] read?
Answer: 2.33 fold and 2.33 ± 0.2 fold

Question: And the “% Early apoptotic cells (LR)” value [2]?
Answer: 0.00 ± 0.0%

Question: What about the “% Late apoptotic cells (UL)” value [2] of the same compound?
Answer: 3.86 ± 0.66%

Question: What about the “% Necrotic cells (UR)” value [2] of the same compound?
Answer: 96.12 ± 14.1%

Question: And the “% Viable cells (LL)” value [2]?
Answer: 0.03 ± 0.001%

Question: And the “Cyt-c gene expression fold change” value [3]?
Answer: 44.32 ± 4.3 fold

Question: And the caspase-3 protein level [4]?
Answer: 34.15 fold

Question: And the “% G0-G1” value [5]?
Answer: 55.35 ± 6.3%

Question: And the “% G2M” value [5]?
Answer: 15.05 ± 6.7%

Question: What about the “% S” value [5] of the same compound?
Answer: 18.68 ± 2.2%

Question: And the “% SubG0-G1” value [5]?
Answer: 10.75 ± 2.3%

Question: And the “Bax gene expression fold change” value ([6]; IC50 of compound, vs 0.1% DMSO, 2^-ΔΔct)?
Answer: 0.31 ± 0.05 fold

Question: What about the Bax/Bcl-2 ratio ([6]; ratio of gene expression fold changes) of the same compound?
Answer: 2

Question: What about the Bax protein level [7] of the same compound?
Answer: 1.86 fold

Question: What about the “Bcl-2 gene expression fold change” value [8] of the same compound?
Answer: 0.15 ± 0.03 fold

Question: And the “Caspase-3 gene expression fold change” value [9]?
Answer: 0.75 ± 0.09 fold

Question: Which results are given for CNC(=O)c1cc(Oc2ccc(NC(=O)Nc3ccc(Cl)c(C(F)(F)F)c3)cc2)ccn1 [Sorafenib]?
Answer: GI50 [10]: 3.98 µM; GI50 [11]: 2.76 µM; GI50 [12]: 1.99 µM; GI50 [13]: 2.51 µM; GI50 [14]: 3.98 µM; GI50 [15]: 2.51 µM; GI50 [16]: 2.51 µM; GI50 [17]: 3.46 µM; GI50 [18]: 1.99 µM; GI50 [19]: 2.51 µM; GI50 [20]: 3.27 µM; GI50 [21]: 2.51 µM; GI50 [22]: 2.51 µM; GI50 [23]: 3.16 µM; GI50 [24]: 2.16 µM; GI50 [25]: 3.16 µM; GI50 [26]: 3.1 µM; GI50 [27]: 3.16 µM; GI50 [28]: 3.16 µM; GI50 [29]: 2.51 µM; GI50 [30]: 2.68 µM; GI50 [31]: 2.53 µM; GI50 [32]: 0.63 µM; GI50 [33]: 3.98 µM; GI50 [34]: 3.16 µM; GI50 [35]: 1.99 µM; GI50 [36]: 5.01 µM; GI50 [37]: 3.16 µM; GI50 [38]: 2.51 µM; GI50 [39]: 5.01 µM; GI50 [40]: 3.16 µM; GI50 [41]: 1.25 µM; GI50 [42]: 2.76 µM; GI50 [43]: 1.99 µM; GI50 [44]: 3.5 µM; GI50 [45]: 3.16 µM; GI50 [46]: 1.99 µM; GI50 [47]: 3.98 µM; GI50 [48]: 2.51 µM; GI50 [49]: 1.91 µM; GI50 [50]: 3.16 µM; GI50 [51]: 3.16 µM; GI50 [52]: 3.16 µM; GI50 [53]: 1.99 µM; GI50 [54]: 1.99 µM; GI50 [55]: 2.51 µM; GI50 [56]: 2.51 µM; GI50 [57]: 3.98 µM; GI50 [58]: 1.99 µM; GI50 [59]: 3.16 µM; GI50 [60]: 3.16 µM; GI50 [61]: 3.16 µM; GI50 [62]: 1.99 µM; GI50 [63]: 3.16 µM; GI50 [64]: 1.25 µM; GI50 [65]: 3.16 µM; GI50 [66]: 3.16 µM; GI50 [67]: 3.16 µM; GI50 [68]: 3.98 µM; GI50 [69]: 1.99 µM; GI50 [70]: 3.98 µM; GI50 [71]: 3.16 µM; GI50 [72]: 3.16 µM
